Entries after “also recorded” stand apart in the source; their conditions may differ.
Key:
MRC-5 cells = experiment: MTT assay, normal embryonic lung fibroblasts MRC-5; format: cell-based, human; conditions: for IC50: Homo sapiens, MRC5, MTT, 72 h, normal fibroblasts, read-out: Cell growth inhibition IC50, MRC-5; for Relative Selectivity: IC50 in MRC-5 cells / average IC50 of four cancer cell lines
Description: (§1) A series of 3-aryl-naphtho[2,3-d]isoxazole-4,9-diones were synthesized (Scheme 1, Figure 1) and their growth inhibition activity was tested in vitro on human non-small cell lung carcinoma NCI-H460, colorectal carcinoma DLD1 and their corresponding MDR cells (NCI-H460/R and DLD1-TxR, respectively), as well as normal embryonic lung fibroblasts MRC-5. The differences in cell growth inhibition between cancer and normal cells obtained by the MTT assay after 72 h treatment are presented in Table 1. The effect of compounds is presented as IC50 values that correspond to the 50% of cell growth inhibition.
(§2) Cell viability was assessed by the MTT assay (AppliChem GmbH, Darmstadt, Germany). Cells grown in 25 cm^2 tissue flasks were trypsinized and 1000 cells/well were seeded into flat-bottomed 96-well tissue culture plates and incubated overnight. Subsequently, the cells were treated with increasing concentrations of Hsp90 inhibitors for 72 h: compound 3 (0.1–2.5 µM), compound 4 (0.25–5 µM), compound 5 (0.5–25 µM), compound 6 (50–1000 nM), compound 7 (10–250 nM), compound 8 (0.25–5 µM), compound 9 (10–250 nM), compound 10 (0.5–25 µM), compound 13 (0.5–10 µM), compound 14 (1–25 µM), and compound 15 (10–250 nM). […] After treatment, MTT was added to each well in a final concentration of 0.2 mg/mL for 4 h. Formazan product was dissolved in 200 µl of DMSO, and the absorbance was measured at 540 nm using an automatic LKB 5060-006 Micro Plate Reader (Vienna, Austria). IC50 value was defined as a concentration of the drug that inhibited cell growth by 50% and was calculated by nonlinear regression analysis using GraphPad Prism 6.0 for Windows (La Jolla, CA, USA). Relative selectivity towards cancer cells was calculated as a relation between IC50 value obtained in MRC-5 cells and an average IC50 value from four tested cancer cell lines.

DLD1 cells = experiment: MTT assay, cell growth inhibition, DLD1; format: cell-based; conditions: Homo sapiens, DLD-1, 72 h
Description: as §1, §2

[1] = system: NCI-H460, NCI-H460/R, DLD1, DLD1-TxR cells; experiment: MTT assay, grouping of inhibitors by IC50 over the cancer cell lines; format: cell-based; conditions: Homo sapiens, Figure 2b, read-out: IC50 values (grouping for Pearson correlation)
Description: When the IC50 values obtained by the MTT assay were compared to Hsp90 affinity binding IC50 values (Table 1), a positive Pearson correlation (r > 0.5) was found for all cancer cell lines (Figure 2b).
as §2

NCI-H460 cells = experiment: MTT assay, cell growth inhibition, NCI-H460; format: cell-based; conditions: Homo sapiens, 72 h, three independent experiments
Description: as §1, §2

NCI-H460/R cells = experiment: MTT assay, cell growth inhibition, NCI-H460/R (MDR); format: cell-based, human; conditions: for Efficacy in MDR NCI-H460/R cells compared with sensitive NCI-H460: 72 h; for IC50: Homo sapiens, NCI-H460, 72 h, MDR cells
Description: as §1
(§3) Human colorectal carcinoma (DLD1), non-small cell lung carcinoma (NCI-H460), and normal embryonic lung fibroblast (MRC-5) cell lines were purchased from the American Type Culture Collection, Rockville, MD. P-gp overexpressing multidrug resistant DLD1-TxR cells were selected by continuous exposure to stepwise increasing concentrations of paclitaxel from DLD1 cells, while NCI-H460/R cells were selected from NCI-H460 cells after DOX selective pressure. MDR cancer cell lines, DLD1-TxR and NCI-H460/R, and their sensitive counterparts were maintained in RPMI 1640 medium supplemented with 10% FBS, 2 mM L-glutamine, and 10,000 U/mL penicillin, 10 mg/mL streptomycin, 25 mg/mL amphotericin B solutions. MRC-5 cells were cultured in DMEM supplemented with 10% FBS, 4 g/L glucose, 2 mM L-glutamine and 5000 U/mL penicillin, 5 mg/mL streptomycin solution. All cell lines were sub-cultured at 72 h intervals using 0.25% trypsin/EDTA and seeded into a fresh medium at 8000 cells/cm^2. All cell lines were maintained at 37 °C in a humidified 5% CO2 atmosphere.
as §2

DLD1-TxR cells = experiment: MTT assay, cell growth inhibition, DLD1-TxR (MDR); format: cell-based, human; conditions: 72 h; for IC50: Homo sapiens, MDR cells
Description: as §1, §3, §2

P-gp = P-gp (Homo sapiens, UniProt P08183); experiment: Rhodamine 123 accumulation assay (P-gp activity, flow cytometry); format: cell-based; parameters: P-gp overexpressing multidrug resistant DLD1-TxR cells were selected by continuous exposure to stepwise increasing concentrations of paclitaxel from DLD1 cells; endogenous in cells; host or cells: NCI-H460/R and DLD1-TxR (drug-selected MDR human cancer cells); conditions: 30 min, Figure 3a; for P-gp activity / Rho 123 accumulation: MDR NCI-H460/R and DLD1-TxR cells, one concentration per compound (100 nM-10 µM); for P-gp activity / Rho 123 accumulation in DLD1-TxR: DLD1-TxR cells
Description: To study the effect of Hsp90 inhibitors on P-gp activity in MDR cancer cells, intracellular accumulation of the P-gp substrate rhodamine 123 (Rho 123) was analyzed by flow cytometry after 30 min treatment (Figure 3a). A well-known inhibitor of P-gp activity, tariquidar (TQ), was included as a positive control.
The accumulation of Rho 123, a fluorescent P-gp substrate, was measured by flow cytometry. The intensity of the fluorescence is proportional to Rho 123 accumulation in the cell. All cell lines were seeded in adherent 6-well plates and grown overnight. DLD1-TxR and NCI-H460/R cells were treated for 30 min with the following concentrations of Hsp90 inhibitors: 500 nM compound 3, 1 µM compound 4, 10 µM compound 5, 500 nM compound 6, 500 nM compound 7, 1 µM compound 8, 500 nM compound 9, 1 µM compound 10, 1 µM compound 13, 10 µM compound 14, 100 nM compound 15. TQ (10 nM) was used as a positive control for Rho 123 accumulation. Rho 123 (5 μM) was simultaneously added with the investigated compounds and the cells were incubated at 37 °C in 5% CO2 for 30 min. The cells were then trypsinized, pelleted by centrifugation, washed with PBS and placed in ice-cold PBS. The samples were kept on ice in the dark until the analysis on CyFlow Space Partec flow cytometer (Sysmex Partec GmbH, Görlitz, Germany). The fluorescence of Rho 123 was detected on fluorescence channel 1 (FL1-H) at 530 nm. A minimum of 10,000 events were collected for each sample and the obtained results were analyzed using Summit software.

Hsp90 = system: Hsp90; parameters: method as in PMID 22538015; conditions: read-out: Hsp90 Affinity binding; cited from earlier work
P-gp expression = experiment: Flow cytometric analysis of P-gp expression; format: cell-based, human; conditions: 72 h; for Change in P-gp expression, DLD1 / Change in P-gp expression, NCI-H460: 5 µM 5, 200 nM 7, 100 nM 9, 10 nM TQ, 50 nM DOX, 50 nM PTX
Description: P-glycoprotein expression level in NCI-H460, NCI-H460/R, DLD1, and DLD1-TxR and cells was measured by flow cytometry. All cell lines were seeded in adherent 6-well plates and treated with Hsp90 inhibitors for 72 h at the following concentrations: 5 µM compound 5, 200 nM compound 7, 100 nM compound 9 (NCI-H460 and DLD1), and 10 µM compound 5, 500 nM compound 7, 500 nM compound 9 (NCI-H460/R and DLD1-TxR). Cells were also treated with 10 nM TQ, a non-competitive P-gp inhibitor, which served as a positive control. In addition, sensitive cells (NCI-H460 and DLD1) were treated with 50 nM DOX and 50 nM PTX that served as positive controls for the induction of P-gp expression. Then, cells were collected by trypsinization, washed with PBS, and directly immunostained by FITC-conjugated anti-P-gp antibody according to the manufacturer’s protocol. The samples were kept in the dark until the analysis on CyFlow Space Partec flow cytometer (Sysmex Partec GmbH, Görlitz, Germany). The fluorescence of FITC-conjugated anti-P-gp was detected on fluorescence channel 1 (FL1-H) at 530 nm. A minimum of 10,000 events were collected for each sample (the gate excluded cell debris and dead cells) and the obtained results were analyzed with Summit software v4.3 (Dako Colorado Inc., Fort Collins, CO, USA).

[2] = 10 µM 5, 500 nM 7, 500 nM 9, 10 nM TQ

Sequence of P-gp (P08183 whole entry): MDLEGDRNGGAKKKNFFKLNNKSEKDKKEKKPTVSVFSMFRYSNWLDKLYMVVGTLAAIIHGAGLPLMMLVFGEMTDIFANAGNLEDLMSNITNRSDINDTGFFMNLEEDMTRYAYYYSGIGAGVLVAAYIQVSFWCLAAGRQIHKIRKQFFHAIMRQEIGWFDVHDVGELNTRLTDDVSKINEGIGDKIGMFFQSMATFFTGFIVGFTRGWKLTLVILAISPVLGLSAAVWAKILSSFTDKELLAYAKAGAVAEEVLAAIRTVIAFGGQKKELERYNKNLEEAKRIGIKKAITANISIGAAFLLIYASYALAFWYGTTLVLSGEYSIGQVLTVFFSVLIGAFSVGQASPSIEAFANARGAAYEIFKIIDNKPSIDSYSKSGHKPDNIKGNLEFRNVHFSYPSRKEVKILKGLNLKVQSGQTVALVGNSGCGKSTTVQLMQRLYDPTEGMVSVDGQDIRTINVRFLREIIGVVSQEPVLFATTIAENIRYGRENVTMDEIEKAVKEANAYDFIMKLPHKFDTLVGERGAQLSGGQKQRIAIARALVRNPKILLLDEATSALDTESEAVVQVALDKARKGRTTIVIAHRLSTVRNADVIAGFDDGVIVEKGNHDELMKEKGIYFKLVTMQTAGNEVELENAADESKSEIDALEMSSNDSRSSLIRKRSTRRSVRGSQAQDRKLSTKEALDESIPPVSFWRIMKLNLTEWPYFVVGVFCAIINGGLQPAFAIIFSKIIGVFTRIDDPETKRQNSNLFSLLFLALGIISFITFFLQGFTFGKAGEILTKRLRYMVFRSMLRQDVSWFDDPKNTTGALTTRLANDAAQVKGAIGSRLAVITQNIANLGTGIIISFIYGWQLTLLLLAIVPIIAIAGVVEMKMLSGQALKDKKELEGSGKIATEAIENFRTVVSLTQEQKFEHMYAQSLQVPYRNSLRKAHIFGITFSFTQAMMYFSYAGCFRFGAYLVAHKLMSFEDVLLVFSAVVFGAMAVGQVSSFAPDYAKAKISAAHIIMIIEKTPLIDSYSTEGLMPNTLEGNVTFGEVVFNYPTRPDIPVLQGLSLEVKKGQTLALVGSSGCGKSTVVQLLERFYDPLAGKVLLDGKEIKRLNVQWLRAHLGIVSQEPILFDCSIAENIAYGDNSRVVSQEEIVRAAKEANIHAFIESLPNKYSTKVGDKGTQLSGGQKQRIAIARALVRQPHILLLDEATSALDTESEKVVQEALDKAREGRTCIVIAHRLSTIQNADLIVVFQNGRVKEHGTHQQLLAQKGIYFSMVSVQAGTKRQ

IC50 (DLD1 cells)	IC50 [1]	IC50 (NCI-H460 cells)	IC50 (NCI-H460/R cells)	IC50 (DLD1-TxR cells)	P-gp activity / Rho 123 accumulation (P-gp)	P-gp activity / Rho 123 accumulation in DLD1-TxR (P-gp)	Structure (SMILES)	IC50 (MRC-5 cells)	Efficacy in MDR NCI-H460/R cells compared with sensitive NCI-H460 (NCI-H460/R cells)	Efficacy in MDR DLD1-TxR cells compared with sensitive DLD1 (DLD1-TxR cells)	IC50 (Hsp90)	Relative Selectivity (MRC-5 cells)	Change in P-gp expression, DLD1 (P-gp expression)	Change in P-gp expression, NCI-H460 (P-gp expression)	Change in P-gp expression, DLD1-TxR (P-gp expression; [2])	Change in P-gp expression, NCI-H460/R (P-gp expression; [2])
925 ± 32 nM	< 1000 nM	785 ± 32 nM	599 ± 20 nM	644 ± 20 nM	did not influence the P-gp activity	–	O=C1c2ccccc2C(=O)c2c(-c3ccccc3)noc21 [Compound 3]	636 ± 23 nM	better efficacy in cells with MDR phenotype	better efficacy in cells with MDR phenotype	7850 nM	–	–	–	–	–
44 ± 1 nM	< 1000 nM	52 ± 2 nM	39 ± 1 nM	193 ± 7 nM	–	maintained a certain activity	CC(=O)Oc1cccc2c1C(=O)c1c(-c3ccncc3)noc1C2=O [Compound 15]	250 ± 14 nM	maintained	lower	84 nM	3.05	–	–	–	–
7450 ± 212 nM	≥ 1000 nM	978 ± 18 nM	23600 ± 470 nM	10600 ± 270 nM	–	partially restored	COc1cccc2c1C(=O)c1c(-c3cc[n+](Cc4ccccc4)cc3)noc1C2=O [Compound 14]	53300 ± 1730 nM	further compromised in the presence of MDR phenotype in both cell lines	further compromised in the presence of MDR phenotype in both cell lines	340 nM	5.00	–	–	–	–
2640 ± 35 nM	≥ 1000 nM	1270 ± 14 nM	1375 ± 12 nM	1790 ± 36 nM	reduction in activity	–	O=C1c2ccccc2C(=O)c2c(-c3ccccn3)noc21 [Compound 10]	257 ± 4 nM	overcame resistance	collateral sensitivity	1060 nM	–	–	–	–	–
1520 ± 54 nM	–	935 ± 48 nM	579 ± 18 nM	1060 ± 25 nM	did not have any positive effects	–	COc1ccc(-c2noc3c2C(=O)c2ccccc2C3=O)cc1 [Compound 4]	1750 ± 83 nM	remained higher than in the corresponding sensitive cells	remained higher than in the corresponding sensitive cells	5840 nM	1.71	–	–	–	–
439 ± 6 nM	< 1000 nM	807 ± 35 nM	472 ± 18 nM	439 ± 10 nM	did not have any positive effects	–	O=C1c2ccccc2C(=O)c2c(-c3ccc(OCCN4CCOCC4)cc3)noc21 [Compound 6]	4740 ± 473 nM	collateral sensitivity	evaded resistance	1200 nM	8.79	–	–	–	–
–	–	–	–	–	–	–	CC(=O)O[C@H]1C(=O)[C@@]2(C)[C@H]([C@H](OC(=O)c3ccccc3)[C@]3(O)C[C@H](OC(=O)[C@H](O)[C@@H](NC(=O)c4ccccc4)c4ccccc4)C(C)=C1C3(C)C)[C@]1(OC(C)=O)CO[C@@H]1C[C@@H]2O [PTX, paclitaxel]	–	–	–	–	–	significantly increased P-gp expression	significantly increased P-gp expression	–	–
–	–	–	–	–	–	–	COc1cc2c(cc1OC)CN(CCc1ccc(NC(=O)c3cc(OC)c(OC)cc3NC(=O)c3cnc4ccccc4c3)cc1)CC2 [TQ, tariquidar]	–	–	–	–	–	increased P-gp expression	did not influence the P-gp expression	increased P-gp expression	did not influence the P-gp expression

Structure (SMILES)	IC50 (DLD1 cells)	IC50 [1]	IC50 (NCI-H460 cells)	IC50 (NCI-H460/R cells)	IC50 (DLD1-TxR cells)	P-gp activity / Rho 123 accumulation (P-gp)	P-gp activity / Rho 123 accumulation in DLD1-TxR (P-gp)	IC50 (MRC-5 cells)	Efficacy in MDR NCI-H460/R cells compared with sensitive NCI-H460 (NCI-H460/R cells)	Efficacy in MDR DLD1-TxR cells compared with sensitive DLD1 (DLD1-TxR cells)	IC50 (Hsp90)	Relative Selectivity (MRC-5 cells)	Change in P-gp expression, DLD1 (P-gp expression)	Change in P-gp expression, NCI-H460 (P-gp expression)	Change in P-gp expression, DLD1-TxR (P-gp expression; [2])	Change in P-gp expression, NCI-H460/R (P-gp expression; [2])
O=C1c2ccccc2C(=O)c2c(-c3cc[n+](Cc4ccccc4)cc3)noc21 [Compound 8]	251 ± 3 nM	≥ 1000 nM	159 ± 3 nM	351 ± 5 nM	3360 ± 49 nM	detrimental; also recorded: modest activity	–	11000 ± 366 nM	compromised in the presence of the MDR phenotype	compromised in the presence of the MDR phenotype	34 nM	10.69	–	–	–	–

From paper PMC6770006, “Novel Heat Shock Protein 90 Inhibitors Suppress P-Glycoprotein Activity and Overcome Multidrug Resistance in Cancer Cells” (International Journal of Molecular Sciences, 2019)
